Laboratory results from publication PMC8118404, “Synergistic effect of the anti-PD-1 antibody with blood stable and reduction sensitive curcumin micelles on colon cancer” (Drug Delivery, 2021).

Columns and labels:
[1] = In vitro release of curcumin by dynamic dialysis method; assay type: physicochemical; details: 20% SDS release medium, 37 °C
Protocol: In order to evaluate the crosslinking effect, in vitro release profiles of curcumin from DMSO (s-Cur), Cur/NCMs, and Cur/DCMs were studied by dynamic dialysis method with 20% SDS solution as release medium. Lyophilized micelles were reconstituted and diluted to 1 mg/mL of curcumin with PBS (0.1 M, pH 7.4) then placed 1 mL into dialysis tube (MWCO 8000–14,000 Da). The tubes were dialyzed against 50 mL release medium at 37 ± 0.5 °C at a stirring speed of 100 rpm with or without 10 mM GSH. At predetermined time intervals, 1 mL of release medium was withdrawn and replenished with an equal volume of the fresh medium. The amount of curcumin released was determined by HPLC analysis as mentioned above. Cumulative release of curcumin was then calculated. The in vitro release studies were carried out in triplicate.

[2] = system: MC-38 cells; experiment: In vitro cytotoxicity, CCK-8 assay; assay type: cell-based, Murine; details: Mus musculus, 72 h, curcumin concentration
Protocol: The cytotoxicity of s-Cur, Cur/NCMs, and Cur/DCMs against MC-38 cells was determined by a CCK-8 assay. Briefly, MC-38 cells were cultured in RPMI1640 medium with 10% FBS, penicillin (100 U/mL), and streptomycin (100 µg/mL) for 24 h. Then, the cells were seeded in 96-well plates (Corning, NY) at 10,000 cells/well in 100 µL medium. After incubation for 24 h, the cells were exposed to s-Cur and equivalent amount of Cur/NCMs and Cur/DCMs to yield final curcumin concentrations from 0 to 65 µg/mL. For GSH triggered release experiments, adherent cells were incubated with 10 mM glutathione monoethyl ester (GSH-OEt) for 2 h before exposure to the curcumin formulations.
After incubation for 72 h, 10 μL CCK8 solution with 100 μL growth medium was added into each well and the cells were incubated for another 1 h. Then, the culture medium was added with 10 μL 1% SDS (dissolve 0.1 g SDS with PBS to obtain 10 mL solution) to stop the reaction, and reading on a Synergy HTX multi-mode reader (BioTek, Winooski, VT) at 450 nm. The cytotoxicity assay was performed in triplicate and the cell viability (%) was calculated with the following equation: (3) Cell viability=At−AB/Ac−AB×100% where At is the absorption value of samples, Ac is the absorption value of the control group, and AB is the absorption value of the blank group. […]

[3] = system: p-MEK1/2 and p-Erk1/2; experiment: Western blot assay of p-MEK1/2 and p-Erk1/2 in MC-38 cells; assay type: cell-based, Murine; details: 10 h
Protocol: MC38 cells were lysed using whole protein extraction kit (KeyGEN BioTECH, Nanjing, China, KGP250). Protein concentration was determined using bicinchoninic acid (BCA) protein assay (KeyGEN BioTECH, Nanjing, China, KGPBCA). Protein extracts were electrophoresed in 10% SDS-PAGE and transferred to a nitrocellulose filter (NC) membrane, blocked by 5% skim milk at room temperature for 1 h, which was prepared in Tris-buffered saline with tween 20 (TBST). Then, the membranes were immunoblotted by primary antibodies. For detection, HRP-conjugated secondary antibodies (Ray Antibody Biotech, Beijing, China, RM2001L) and chemiluminescent HRP substrate kit (EpiZyme, Shanghai, China, SQ2O2) were used. As the molecular weight of the target bands is similar, the western blot fast stripping buffer (EpiZyme, Shanghai, China, PS107) was used. The following primary antibodies were used: anti-p-MEK1/2 (Cell Signaling Technology (CST), 41G9, Boston, MA), anti-p-Erk1/2 (CST, 197G2). The blots were quantified using ImageJ (National Institutes of Health, Bethesda, MD) and normalized to the control group.

[4] = Pharmacokinetics after i.v. administration in SD rats; assay type: in vivo; details: Sprague-Dawley, rat, plasma, iv
Protocol: Nine SD rats were randomly divided into three groups (three rats for each group), receiving s-Cur, Cur/NCMs, and Cur/DCMs. Following the intravenous (i.v.) administration of the three curcumin formulations (20 mg/kg), 0.1 mL of the blood samples was collected from the tail vein at predetermined time intervals. The blood samples were centrifuged for 6 min at 5867×g to obtain the plasma. Then, the curcumin concentrations in the plasma were analyzed using a liquid chromatography mass spectrometer (LCMS-2020) equipped with a Shimadzu UV-visible spectrophotometer (Columbia, MD). The detection limitation of the equipment was 1 ng/mL. We employed the non-compartmental analysis in WinNonlin software V6.2.1 to calculate major pharmacokinetic parameters.

[5] = system: MC-38 colon tumor; set-up: method as in our previous research (data not shown); details: in vivo; ref our previous research (data not shown); cited from earlier work

curcumin released ([1]; at 24 h): 75% | curcumin released ([1]; within the first 8 h): About 60% | concentration at 12 h ([4]; i.v. 20 mg/kg, after 12 h (detection limit), read-out: plasma curcumin level): < 1 ng/mL | concentration at 30 min ([4]; i.v. 20 mg/kg, within 30 min, read-out: plasma curcumin level): < 100 ng/mL | AUC(0-inf) ([4]; single dosage 20 mg/kg): 1970 ng·h/mL | AUC(0-t) ([4]; single dosage 20 mg/kg): 1960 ng·h/mL | Cmax ([4]; single dosage 20 mg/kg): 7120 ng/mL | half-life ([4]; single dosage 20 mg/kg): 83.4 min | clearance ([4]; single dosage 20 mg/kg, read-out: CLz (converted)): 170 mL/min/kg | MRT last ([4]; single dosage 20 mg/kg, read-out: MRT(0–t)): 9 min | MRT inf ([4]; single dosage 20 mg/kg, read-out: MRT(0–∞)): 9.6 min | Vd ([4]; single dosage 20 mg/kg, read-out: Vz): 20.4 L/kg
Structure (SMILES): COc1cc(C=CC(=O)CC(=O)C=Cc2ccc(O)c(OC)c2)ccc1O [s-Cur, 1,7-bis(4-hydroxy-3-methoxyphenyl)-1,6-heptadiene-3,5-dione]
IC50 [2]: 13.7 µg/mL | expression of the proliferative marker proteins p-MEK1/2 and p-ERK1/2 [3]: significantly low expression | enhancement of the antitumor effects of anti-PD-1 [5]: not to be able to significantly enhance the antitumor effects of anti-PD-1
